Experimental data reported in paper PMC7886321, “Deciphering the LRRK code: LRRK1 and LRRK2 phosphorylate distinct Rab proteins and are regulated by diverse mechanisms” (Biochemical Journal, 2021).

How the values were obtained:
LRRK2 = target: T1, LRRK2 (Homo sapiens, UniProt Q5S007); assay: HEK293 overexpression, pRab10 Thr73 and pSer935 LRRK2 immunoblot; type: cell-based
T1 construct: wild type LRRK2 overexpressed in HEK293 cells

LRRK1 = target: T2, LRRK1 (Homo sapiens, UniProt Q38SD2); assay: in vitro kinase assay, Rab7A Ser72 phosphorylation by immunoblot, […] ATP; type: biochemical
T2 construct: recombinant LRRK1, residues 28 to 2015
T2 sequence (Q38SD2 28-2015): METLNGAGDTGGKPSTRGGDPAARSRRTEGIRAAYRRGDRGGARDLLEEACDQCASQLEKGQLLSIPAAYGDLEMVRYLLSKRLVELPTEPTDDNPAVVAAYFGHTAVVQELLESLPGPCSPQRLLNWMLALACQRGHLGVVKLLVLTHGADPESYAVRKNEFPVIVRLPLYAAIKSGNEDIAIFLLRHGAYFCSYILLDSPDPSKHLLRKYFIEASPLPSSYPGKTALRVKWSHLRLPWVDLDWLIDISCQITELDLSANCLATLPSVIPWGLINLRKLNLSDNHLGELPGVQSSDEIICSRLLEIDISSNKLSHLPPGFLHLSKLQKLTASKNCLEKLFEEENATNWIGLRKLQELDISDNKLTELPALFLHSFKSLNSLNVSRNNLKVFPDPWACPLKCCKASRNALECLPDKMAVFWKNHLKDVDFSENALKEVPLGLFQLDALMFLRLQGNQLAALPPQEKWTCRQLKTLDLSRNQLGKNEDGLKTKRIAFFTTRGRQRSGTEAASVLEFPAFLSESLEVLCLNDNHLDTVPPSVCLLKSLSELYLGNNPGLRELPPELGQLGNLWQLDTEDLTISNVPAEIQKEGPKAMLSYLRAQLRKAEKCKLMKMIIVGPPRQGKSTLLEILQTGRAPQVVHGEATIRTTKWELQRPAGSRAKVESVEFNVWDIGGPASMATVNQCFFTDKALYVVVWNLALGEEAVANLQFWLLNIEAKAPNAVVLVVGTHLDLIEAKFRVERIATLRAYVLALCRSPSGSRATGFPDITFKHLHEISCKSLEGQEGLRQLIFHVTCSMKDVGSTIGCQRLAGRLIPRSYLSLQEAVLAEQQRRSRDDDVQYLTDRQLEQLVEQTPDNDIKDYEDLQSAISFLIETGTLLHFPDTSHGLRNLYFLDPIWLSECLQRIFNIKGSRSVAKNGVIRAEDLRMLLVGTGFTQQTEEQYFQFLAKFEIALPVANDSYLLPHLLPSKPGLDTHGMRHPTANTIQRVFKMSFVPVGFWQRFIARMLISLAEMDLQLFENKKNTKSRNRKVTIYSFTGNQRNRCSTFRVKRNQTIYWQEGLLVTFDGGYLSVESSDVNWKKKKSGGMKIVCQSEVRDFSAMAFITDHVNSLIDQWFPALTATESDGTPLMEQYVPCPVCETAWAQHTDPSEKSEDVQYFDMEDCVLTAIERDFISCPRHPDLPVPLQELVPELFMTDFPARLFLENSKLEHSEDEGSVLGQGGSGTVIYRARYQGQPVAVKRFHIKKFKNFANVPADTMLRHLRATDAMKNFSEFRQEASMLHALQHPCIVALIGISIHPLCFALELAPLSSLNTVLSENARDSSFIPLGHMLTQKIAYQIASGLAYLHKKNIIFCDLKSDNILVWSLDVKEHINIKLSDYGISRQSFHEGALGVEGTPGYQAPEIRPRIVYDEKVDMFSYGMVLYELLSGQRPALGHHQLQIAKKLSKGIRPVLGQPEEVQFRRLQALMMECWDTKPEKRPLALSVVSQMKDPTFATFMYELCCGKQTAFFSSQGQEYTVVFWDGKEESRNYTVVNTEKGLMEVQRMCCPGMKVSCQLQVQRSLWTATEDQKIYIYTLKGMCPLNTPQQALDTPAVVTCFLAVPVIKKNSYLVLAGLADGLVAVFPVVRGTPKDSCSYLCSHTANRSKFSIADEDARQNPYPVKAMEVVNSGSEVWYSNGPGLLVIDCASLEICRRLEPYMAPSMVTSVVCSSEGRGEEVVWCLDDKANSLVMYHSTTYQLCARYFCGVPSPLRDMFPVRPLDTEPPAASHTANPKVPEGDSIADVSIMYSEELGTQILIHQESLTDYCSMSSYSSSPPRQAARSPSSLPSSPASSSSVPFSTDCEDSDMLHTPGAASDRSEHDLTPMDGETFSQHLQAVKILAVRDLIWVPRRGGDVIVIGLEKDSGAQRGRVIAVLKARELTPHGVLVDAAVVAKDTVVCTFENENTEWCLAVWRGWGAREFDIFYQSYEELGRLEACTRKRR

T1 sequence (Q5S007 whole entry): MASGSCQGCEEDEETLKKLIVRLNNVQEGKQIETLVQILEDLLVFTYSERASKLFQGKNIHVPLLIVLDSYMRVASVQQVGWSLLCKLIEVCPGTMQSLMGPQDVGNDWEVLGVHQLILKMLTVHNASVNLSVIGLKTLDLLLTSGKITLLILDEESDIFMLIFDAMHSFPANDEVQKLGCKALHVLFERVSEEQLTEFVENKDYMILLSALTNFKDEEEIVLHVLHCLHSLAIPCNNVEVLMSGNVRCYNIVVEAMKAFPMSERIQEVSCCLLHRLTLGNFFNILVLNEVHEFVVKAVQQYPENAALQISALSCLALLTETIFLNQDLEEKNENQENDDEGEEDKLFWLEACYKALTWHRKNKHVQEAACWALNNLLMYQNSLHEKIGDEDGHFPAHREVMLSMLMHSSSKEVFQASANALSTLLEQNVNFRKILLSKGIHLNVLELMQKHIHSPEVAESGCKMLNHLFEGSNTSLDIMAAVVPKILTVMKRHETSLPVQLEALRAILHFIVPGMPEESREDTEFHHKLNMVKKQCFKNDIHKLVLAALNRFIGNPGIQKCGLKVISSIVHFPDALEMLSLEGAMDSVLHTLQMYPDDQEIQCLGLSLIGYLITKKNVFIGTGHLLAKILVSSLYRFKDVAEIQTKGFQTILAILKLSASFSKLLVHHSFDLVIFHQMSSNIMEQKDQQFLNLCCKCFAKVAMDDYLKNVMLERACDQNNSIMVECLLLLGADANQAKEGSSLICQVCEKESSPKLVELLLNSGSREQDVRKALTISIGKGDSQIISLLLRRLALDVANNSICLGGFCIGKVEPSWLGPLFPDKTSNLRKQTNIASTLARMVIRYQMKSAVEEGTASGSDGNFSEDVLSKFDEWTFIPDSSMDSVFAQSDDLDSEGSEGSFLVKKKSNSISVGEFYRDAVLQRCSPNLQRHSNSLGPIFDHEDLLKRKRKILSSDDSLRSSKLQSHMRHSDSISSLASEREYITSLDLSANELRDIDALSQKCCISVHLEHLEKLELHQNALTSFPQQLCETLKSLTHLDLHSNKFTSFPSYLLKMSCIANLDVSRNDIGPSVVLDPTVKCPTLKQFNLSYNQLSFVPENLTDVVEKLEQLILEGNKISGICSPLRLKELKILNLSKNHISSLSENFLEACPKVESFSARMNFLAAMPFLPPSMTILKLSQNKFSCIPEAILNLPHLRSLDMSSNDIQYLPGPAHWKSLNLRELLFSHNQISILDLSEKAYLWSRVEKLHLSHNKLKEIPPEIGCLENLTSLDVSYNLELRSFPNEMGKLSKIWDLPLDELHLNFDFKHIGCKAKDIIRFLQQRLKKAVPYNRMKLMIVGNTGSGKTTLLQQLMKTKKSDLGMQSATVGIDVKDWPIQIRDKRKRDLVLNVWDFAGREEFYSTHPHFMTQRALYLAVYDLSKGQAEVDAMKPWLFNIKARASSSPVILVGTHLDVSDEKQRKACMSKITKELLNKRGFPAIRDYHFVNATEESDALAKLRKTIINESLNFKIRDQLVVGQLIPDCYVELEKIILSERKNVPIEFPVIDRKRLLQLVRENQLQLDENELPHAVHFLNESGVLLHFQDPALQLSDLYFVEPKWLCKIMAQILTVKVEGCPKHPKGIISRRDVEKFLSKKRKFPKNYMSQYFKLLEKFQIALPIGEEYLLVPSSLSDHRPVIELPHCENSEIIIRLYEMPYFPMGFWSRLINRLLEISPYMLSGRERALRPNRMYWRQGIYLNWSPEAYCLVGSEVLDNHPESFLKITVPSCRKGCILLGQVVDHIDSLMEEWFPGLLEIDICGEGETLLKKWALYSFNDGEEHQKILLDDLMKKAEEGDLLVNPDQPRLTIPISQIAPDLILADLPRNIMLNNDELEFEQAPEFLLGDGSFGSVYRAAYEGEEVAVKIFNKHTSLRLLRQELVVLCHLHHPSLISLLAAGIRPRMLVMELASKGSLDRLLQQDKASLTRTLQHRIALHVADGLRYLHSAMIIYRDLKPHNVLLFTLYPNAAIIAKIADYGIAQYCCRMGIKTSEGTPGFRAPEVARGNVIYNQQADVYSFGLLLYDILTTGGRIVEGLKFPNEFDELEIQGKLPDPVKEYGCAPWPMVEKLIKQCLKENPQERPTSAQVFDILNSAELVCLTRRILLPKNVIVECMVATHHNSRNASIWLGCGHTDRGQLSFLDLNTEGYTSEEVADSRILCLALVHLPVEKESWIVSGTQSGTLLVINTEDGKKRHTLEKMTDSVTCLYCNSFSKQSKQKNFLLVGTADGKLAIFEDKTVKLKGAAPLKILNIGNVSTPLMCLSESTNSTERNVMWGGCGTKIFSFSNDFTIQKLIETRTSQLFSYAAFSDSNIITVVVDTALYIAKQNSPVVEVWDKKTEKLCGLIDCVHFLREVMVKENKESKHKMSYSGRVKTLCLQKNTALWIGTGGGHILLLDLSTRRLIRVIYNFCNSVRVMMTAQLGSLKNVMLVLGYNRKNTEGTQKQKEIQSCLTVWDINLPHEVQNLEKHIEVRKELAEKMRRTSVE

## COc1cc(C(=O)N2CCC(N3CCN(C)CC3)CC2)ccc1Nc1ncc2c(n1)N(C)c1ccccc1C(=O)N2C [LRRK2-IN1]
LRRK2
  HEK293 overexpression, pRab10 Thr73 and pSer935 LRRK2 immunoblot: All inhibitors ablated LRRK2-mediated phosphorylation of Rab10 at Thr73 and LRRK2 at Ser935 in parallel experiments.

## Cc1ccc(C(=O)Nc2ccc(CN3CCN(C)CC3)c(C(F)(F)F)c2)cc1C#Cc1cnc2[nH]ncc2c1 [GZD-824]
LRRK1
  IC50: ~0.02 µM

## O=C(Nc1cccnc1)c1cc(-c2ccnc(F)c2)ccc1OCc1ccccc1 [GSK2578215A]
LRRK2
  HEK293 overexpression, pRab10 Thr73 and pSer935 LRRK2 immunoblot: All inhibitors ablated LRRK2-mediated phosphorylation of Rab10 at Thr73 and LRRK2 at Ser935 in parallel experiments.
